Assay results from BindingDB's records for doi:10.1016/j.bmcl.2007.02.076 (Bristol-Myers Squibb Pharmaceutical Research Institute, 2007).

Assay: Inhibition of pTACE

SMILES | IC50 [nM]
Cc1cc(COc2ccc(C(=O)Nc3ccccc3Cc3c[nH]c(=O)[nH]3)cc2)c2ccccc2n1 [4-((2-methylquinolin-4-yl)methoxy)-N-(2-((2-oxo-2,3-dihydro-1H-imidazol-5-yl)methyl)phenyl)benzamide] | 1600
Cc1cc(COc2ccc(S(=O)(=O)NCc3n[nH]c(=O)[nH]3)cc2)c2ccccc2n1 [4-((2-methylquinolin-4-yl)methoxy)-N-((5-oxo-4,5-dihydro-1H-1,2,4-triazol-3-yl)methyl)benzenesulfonamide] | 439
Cc1cc(COc2ccc(C(=O)Nc3ccccc3Cc3n[nH]c(=O)[nH]3)cc2)c2ccccc2n1 [4-((2-methylquinolin-4-yl)methoxy)-N-(2-((5-oxo-4,5-dihydro-1H-1,2,4-triazol-3-yl)methyl)phenyl)benzamide] | 34
Cc1cc(COc2ccc(C(=O)NCc3n[nH]c(=O)[nH]3)cc2)c2ccccc2n1 [4-((2-methylquinolin-4-yl)methoxy)-N-((5-oxo-4,5-dihydro-1H-1,2,4-triazol-3-yl)methyl)benzamide] | > 1000
Cc1cc(COc2ccc(S(=O)(=O)NCC3(C)NC(=O)NC3=O)cc2)c2ccccc2n1 (stereo not drawn) [N-((4-methyl-2,5-dioxoimidazolidin-4-yl)methyl)-4-((2-methylquinolin-4-yl)methoxy)benzenesulfonamide] | 37
Cc1cc(COc2ccc(C(=O)Nc3ccccc3C(=O)c3c[nH]c(=O)[nH]3)cc2)c2ccccc2n1 [4-((2-methylquinolin-4-yl)methoxy)-N-(2-(2-oxo-2,3-dihydro-1H-imidazole-5-carbonyl)phenyl)benzamide] | 9
Cc1cc(COc2ccc(C(=O)NCC3(C)NC(=O)NC3=O)cc2)c2ccccc2n1 (stereo not drawn) [N-((4-methyl-2,5-dioxoimidazolidin-4-yl)methyl)-4-((2-methylquinolin-4-yl)methoxy)benzamide] | 29
Cc1cc(COc2ccc(C(=O)Nc3ccccc3-c3[nH]c(=O)[nH]c3O)cc2)c2ccccc2n1 [N-(2-(2,5-dioxoimidazolidin-4-yl)phenyl)-4-((2-methylquinolin-4-yl)methoxy)benzamide] | 14
